Measurements from ChEMBL document CHEMBL1201862, “PubChem BioAssay data set” (2004).
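Each compound was tested at five concentrations against cells in 96-well plates for 48 hours. GI50 marks 50% less growth.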 Activity calls are given as the source filed them. Cut-off read from the data, not from the text of the source: active = GI50 up to about 1.1 µM and inactive = higher.

Tests used:
Experiment in all cases: DTP human tumour cell line panel, 48 h
M19-MEL = test system: M19-MEL
COLO 205 = test system: COLO 205
ACHN = test system: ACHN
NCI-H460 = test system: NCI-H460
M14 = test system: M14
RPMI-8226 = test system: RPMI-8226
NCI-H522 = test system: NCI-H522
RXF 393 = test system: RXF 393
NCI-H226 = test system: NCI-H226
KM12 = test system: KM12
OVCAR-3 = test system: OVCAR-3
HCC 2998 = test system: HCC 2998
MOLT-4 = test system: MOLT-4
HCT-116 = test system: HCT-116
DLD-1 = test system: DLD-1
LOX IMVI = test system: LOX IMVI
SF-268 = test system: SF-268
LXFL 529 = test system: LXFL 529
SW-620 = test system: SW-620
HT-29 = test system: HT-29
DMS-114 = test system: DMS-114
TK-10 = test system: TK-10
SF-539 = test system: SF-539
CCRF-CEM = test system: CCRF-CEM
SNB-75 = test system: SNB-75
HOP-62 = test system: HOP-62
UACC-62 = test system: UACC-62
SK-MEL-5 = test system: SK-MEL-5
A549 = test system: A549
786-0 = test system: 786-0
RXF 631 = test system: RXF 631
OVCAR-5 = test system: OVCAR-5
UACC-257 = test system: UACC-257
A498 = test system: A498
SF-295 = test system: SF-295
XF498 = test system: XF498
SNB-78 = test system: SNB-78
EKVX = test system: EKVX
K562 = test system: K562
UO-31 = test system: UO-31
SK-OV-3 = test system: SK-OV-3
U-251 = test system: U-251
Malme-3M = test system: Malme-3M
NCI-H23 = test system: NCI-H23
IGROV-1 = test system: IGROV-1
SK-MEL-28 = test system: SK-MEL-28
HOP-92 = test system: HOP-92
HL-60 = test system: HL-60
KM-20L2 = test system: KM-20L2
SK-MEL-2 = test system: SK-MEL-2
OVCAR-8 = test system: OVCAR-8
HCT-15 = test system: HCT-15
SR = test system: SR
OVCAR-4 = test system: OVCAR-4
CAKI-1 = test system: CAKI-1
SN12C = test system: SN12C
DMS-273 = test system: DMS-273
SNB-19 = test system: SNB-19

For `Cc1cccc(C)c1NC(=O)C(=O)C(C(=O)c1ccccc1-c1ccccc1)C1OC(=O)c2ccccc21` (centres undefined), the GI50 (M19-MEL) was 15.6 µM (inactive), the GI50 (COLO 205) was 19.2 µM (inactive) and the GI50 (ACHN) was 43.9 µM (inactive). For the same molecule, the GI50 (NCI-H460) was 27.3 µM (inactive), the GI50 (M14) was 14.7 µM (inactive) and the GI50 (RPMI-8226) was 15.8 µM (inactive). For the same molecule, the GI50 (NCI-H522) was 10.9 µM (inactive), the GI50 (RXF 393) was 12.8 µM (inactive) and the GI50 (NCI-H226) was 11.6 µM (inactive). For the same molecule, the GI50 (KM12) was 20.9 µM (inactive), the GI50 (OVCAR-3) was 17.1 µM (inactive) and the GI50 (HCC 2998) was 15.1 µM (inactive). The GI50 (MOLT-4) was 18.1 µM (inactive), the GI50 (HCT-116) was 14.6 µM (inactive) and the GI50 (DLD-1) was 17.5 µM (inactive). The GI50 (LOX IMVI) was 19 µM (inactive), the GI50 (SF-268) was 23.7 µM (inactive) and the GI50 (LXFL 529) was 13.5 µM (inactive). For the same molecule, the GI50 (SW-620) was 26.4 µM (inactive), the GI50 (HT-29) was 37.1 µM (inactive) and the GI50 (DMS-114) was 13.7 µM (inactive). The GI50 (TK-10) was 26.7 µM (inactive), the GI50 (SF-539) was 14.8 µM (inactive) and the GI50 (CCRF-CEM) was 19.4 µM (inactive). For the same molecule, the GI50 (SNB-75) was 22 µM (inactive), the GI50 (HOP-62) was 16.9 µM (inactive) and the GI50 (UACC-62) was 17.4 µM (inactive). For the same molecule, the GI50 (SK-MEL-5) was 17.8 µM (inactive), the GI50 (A549) was 25.6 µM (inactive) and the GI50 (786-0) was 18.2 µM (inactive). The GI50 (RXF 631) was 31.8 µM (inactive), the GI50 (OVCAR-5) was 23.2 µM (inactive) and the GI50 (UACC-257) was 22.6 µM (inactive). The GI50 (A498) was 18.7 µM (inactive), the GI50 (SF-295) was 31.3 µM (inactive) and the GI50 (XF498) was 15.9 µM (inactive). For the same molecule, the GI50 (SNB-78) was 24.8 µM (inactive), the GI50 (EKVX) was 26.3 µM (inactive) and the GI50 (K562) was 30.4 µM (inactive). For the same molecule, the GI50 (UO-31) was 25.3 µM (inactive), the GI50 (SK-OV-3) was 27.6 µM (inactive) and the GI50 (U-251) was 14.2 µM (inactive). The GI50 (Malme-3M) was 12.5 µM (inactive), the GI50 (NCI-H23) was 14.3 µM (inactive) and the GI50 (IGROV-1) was 25.6 µM (inactive). For the same molecule, the GI50 (SK-MEL-28) was 22.9 µM (inactive), the GI50 (HOP-92) was 16.7 µM (inactive) and the GI50 (HL-60) was 21 µM (inactive). For the same molecule, the GI50 (KM-20L2) was 28.8 µM (inactive), the GI50 (SK-MEL-2) was 16.2 µM (inactive) and the GI50 (OVCAR-8) was 29.6 µM (inactive).

In the case of `O=c1c(Br)cc2nc3ccccc3sc-2c1Br`, the GI50 (M19-MEL) is reported as 17.5 µM (inactive), the GI50 (COLO 205) is reported as 36.3 µM (inactive) and the GI50 (ACHN) is reported as > 100 µM (inactive). The GI50 (HCT-15) was over 68.7 µM, the GI50 (NCI-H460) was > 100 µM (inactive) and the GI50 (M14) was > 100 µM (inactive). The GI50 (RPMI-8226) was 18.5 µM (inactive), the GI50 (NCI-H522) was 15.8 µM (inactive) and the GI50 (RXF 393) was > 100 µM (inactive). For the same molecule, the GI50 (SR) was 53.5 µM (inactive), the GI50 (NCI-H226) was > 100 µM (inactive) and the GI50 (KM12) was > 100 µM (inactive). The GI50 (OVCAR-3) was 16.9 µM (inactive), the GI50 (HCC 2998) was > 100 µM (inactive) and the GI50 (MOLT-4) was 22.2 µM (inactive). For the same molecule, the GI50 (HCT-116) was > 100 µM (inactive), the GI50 (DLD-1) was > 100 µM (inactive) and the GI50 (LOX IMVI) was 61.7 µM (inactive). The GI50 (SF-268) was 72.1 µM (inactive), the GI50 (LXFL 529) was 28.1 µM (inactive) and the GI50 (OVCAR-4) was 24 µM (inactive). For the same molecule, the GI50 (CAKI-1) was > 100 µM (inactive), the GI50 (SW-620) was 68.1 µM (inactive) and the GI50 (HT-29) was > 100 µM (inactive). For the same molecule, the GI50 (DMS-114) was 17.9 µM (inactive), the GI50 (TK-10) was > 100 µM (inactive) and the GI50 (SF-539) was > 83.9 µM (inactive). The GI50 (CCRF-CEM) was 23.8 µM (inactive), the GI50 (SNB-75) was > 100 µM (inactive) and the GI50 (HOP-62) was > 100 µM (inactive). For the same molecule, the GI50 (SN12C) was > 100 µM (inactive), the GI50 (UACC-62) was 25 µM (inactive) and the GI50 (SK-MEL-5) was 29.5 µM (inactive). For the same molecule, the GI50 (A549) was > 94.8 µM (inactive), the GI50 (786-0) was 15.4 µM (inactive) and the GI50 (RXF 631) was > 100 µM (inactive). The GI50 (OVCAR-5) was > 100 µM (inactive), the GI50 (UACC-257) was 31.3 µM (inactive) and the GI50 (A498) was > 100 µM (inactive). For the same molecule, the GI50 (SF-295) was > 100 µM (inactive), the GI50 (DMS-273) was > 100 µM (inactive) and the GI50 (XF498) was 27.2 µM (inactive). The GI50 (SNB-78) was > 100 µM (inactive), the GI50 (EKVX) was > 74.6 µM (inactive) and the GI50 (K562) was 18.7 µM (inactive). The GI50 (UO-31) was > 100 µM (inactive), the GI50 (SK-OV-3) was > 100 µM (inactive) and the GI50 (U-251) was > 80.7 µM (inactive). The GI50 (Malme-3M) was > 100 µM (inactive), the GI50 (NCI-H23) was 29.9 µM (inactive) and the GI50 (IGROV-1) was > 100 µM (inactive). The GI50 (SK-MEL-28) was > 100 µM (inactive), the GI50 (HOP-92) was 50 µM (inactive) and the GI50 (SNB-19) was > 100 µM (inactive). For the same molecule, the GI50 (HL-60) was 16.3 µM (inactive), the GI50 (KM-20L2) was > 100 µM (inactive) and the GI50 (SK-MEL-2) was > 100 µM (inactive). The GI50 (OVCAR-8) was 19.5 µM (inactive).
